Active and inactive are the calls of the source.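 Rule for the calls: active = signal-lowering curve whose fitted AC50 is at or under twice the top valid dose of that sample; inconclusive = flat fit with a moderate drop, or a poor fit; inactive = the rest.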
Legend:
[1] = A549 cell cytotoxicity, dose response, cytotoxicity control, CellTiter-Glo luminescence, dry powder, set 14 (AID 977620); details: A549 viability, CellTiter-Glo ATP luminescence, 72 h; at 30 µM (top of the series)
[2] = tested on: A549 viability, CellTiter-Glo ATP luminescence, 72 h; experiment: as above

Structure (SMILES) | activity change, negative = cytotoxicity [1] | AC50 [2]
CN(C)S(=O)(=O)c1ccc(N2CCCC2)c(C(=O)Nc2cccc(F)c2)c1 | -13.3% (inactive) | 
Cc1nc(NC(=O)c2cc(S(=O)(=O)N(C)C)ccc2N2CCCC2)n[nH]1 | -5.15% (inactive) | 
Cc1cnc(NC(=O)c2cc(S(=O)(=O)N(C)C)ccc2N(C)C)s1 | -11.3% (inactive) | 
CN(C)S(=O)(=O)c1ccc(N2CCCC2)c(C(=O)Nc2nc3ccccc3s2)c1 |  | 25.9 µM
Cc1ccccc1NC(=O)c1cc(S(=O)(=O)N(C)C)ccc1N1CCCC1 | -11.9% (inactive) | 
CN(C)S(=O)(=O)c1ccc(N2CCCC2)c(C(=O)Nc2nccs2)c1 |  | > 60 µM (inactive)
CCN(CC)c1ccc(S(=O)(=O)N(C)C)cc1C(=O)Nc1ncc(C)s1 |  | > 60 µM (inactive)
CN(C)C(=O)c1cc(S(=O)(=O)N(C)C)ccc1N1CCCC1 | -2.1% (inactive) | 
Cc1cnc(NC(=O)c2cc(S(=O)(=O)N3CCOCC3)ccc2N2CCCC2)s1 |  | 23.3 µM
Cc1cnc(NC(=O)c2cc(S(=O)(=O)N3CCCCC3)ccc2N2CCCC2)s1 |  | > 60 µM (inactive)
Cc1cnc(NC(=O)c2cc(S(=O)(=O)N(C)c3ccccc3)ccc2N2CCCC2)s1 | 0.919% (inactive) | 
COc1ccc2nc(NC(=O)c3cc(S(=O)(=O)N(C)C)ccc3N3CCCC3)sc2c1 | -22.2% (inactive) | 
Cc1cnc(NC(=O)c2cccc(S(=O)(=O)N(C)C)c2)s1 | 3.41% (inactive) | 
CN(C)S(=O)(=O)c1ccc(N2CCCC2)c(C(=O)Nc2ccc(Br)cc2)c1 |  | > 60 µM (inactive)
Cc1cnc(NC(=O)c2cc(S(=O)(=O)N(CC(C)C)CC(C)C)ccc2N2CCCC2)s1 |  | > 60 µM (inactive)
CN(C)S(=O)(=O)c1ccc(N2CCCC2)c(C(=O)Nc2ccncc2)c1 | -5.75% (inactive) | 
COc1cccc2sc(NC(=O)c3cc(S(=O)(=O)N(C)C)ccc3N3CCCC3)nc12 | -3.6% (inactive) | 
CN(C)S(=O)(=O)c1ccc(N2CCCC2)c(C(=O)Nc2ccccc2Cl)c1 | -2.95% (inactive) | 

Structure (SMILES) | activity change, negative = cytotoxicity [1] | AC50 [2]
Cc1nnc(NC(=O)c2cc(S(=O)(=O)N(C)C)ccc2N2CCCC2)s1 | -7.41% (inactive) | 
CN(C)CCCN(Cc1cc2ccccc2[nH]c1=O)C(=O)NCc1ccccc1 | -11.2% (inactive) | 
COc1ccc(NC(=O)c2cc(S(=O)(=O)N(C)C)ccc2N2CCCC2)cc1 | -10.6% (inactive) | 
COc1ccccc1NC(=O)c1cc(S(=O)(=O)N(C)C)ccc1N1CCCC1 | -6.88% (inactive) | 
CN(C)CCCN(Cc1cc2ccccc2[nH]c1=O)C(=O)Nc1ccccc1 | -3.6% (inactive) | 
Cc1ccc(NC(=O)c2cc(S(=O)(=O)N(C)C)ccc2N2CCCC2)cc1 |  | > 60 µM (inactive)
CCN(CC)S(=O)(=O)c1ccc(N2CCCC2)c(C(=O)Nc2ncc(C)s2)c1 |  | > 60 µM (inactive)
Cc1cnc(NC(=O)c2cc(S(=O)(=O)NCc3ccccc3)ccc2N2CCCC2)s1 | -16.4% (inactive) | 
Cc1cnc(NC(=O)c2cc(S(=O)(=O)N(C)C)ccc2N2CCCCC2)s1 |  | > 60 µM (inactive)
CN(C)S(=O)(=O)c1ccc(N2CCCC2)c(C(=O)NC2CCCCC2)c1 | -6.42% (inactive) | 
Cc1cnc(NC(=O)c2cc(S(=O)(=O)N(C)C)ccc2C2CCCC2)s1 |  | > 60 µM (inactive)
CN(C)S(=O)(=O)c1ccc(N2CCCC2)c(C(=O)N2CCOCC2)c1 | -6.88% (inactive) | 
COc1ccc2sc(NC(=O)c3cc(S(=O)(=O)N(C)C)ccc3N3CCCC3)nc2c1 |  | > 60 µM (inactive)
Cc1cnc(NC(=O)c2cc(S(=O)(=O)N(C)C)ccc2N2CCNCC2)s1 | -10.1% (inactive) | 
CN(C)S(=O)(=O)c1ccc(N2CCCC2)c(C(=O)Nc2ccccc2)c1 |  | > 60 µM (inactive)
Cc1cnc(NC(=O)c2cc(S(=O)(=O)N(C)C)ccc2N2CCC2)s1 |  | > 60 µM (inactive)
Cc1cnc(NC(=O)c2cc(S(=O)(=O)N3CCNCC3)ccc2N2CCCC2)s1 |  | > 60 µM (inactive)
CN(C)S(=O)(=O)c1ccc(N2CCCC2)c(C(=O)Nc2cccnc2)c1 | -10% (inactive) | 

From PubChem BioAssay AID977620 (Broad Institute, 2014)
